Measurements taken from US9790233B2, “Compositions and methods of modulating 15-PGDH activity” (CASE WESTERN RESERVE UNIVERSITY, priority 2012, dated 2017).
Like-named read-outs stand apart in the source and are kept apart here.

What was measured:
Assay type in all cases: cell-based
[1] = test system: 15-PGDH luciferase fusion construct in Vaco503 reporter cell line; assay: 15-PGDH-luciferase fusion gene reporter induction, V503 cells; settings: read-out: V503-3H9-7 reporter activity, % ([…]), […], Table 18
[2] = test system: 15-PGDH luciferase fusion construct in V9m reporter cell line; assay: 15-PGDH-luciferase fusion gene reporter induction, V9m cells
[3] = test system: 15-PGDH luciferase fusion construct in LS174T reporter cell line; assay: 15-PGDH-luciferase fusion gene reporter induction, LS174T cells; settings: Homo sapiens
[4] = read-out: V503-3H9-7 reporter activity, % (2.5 μM)
[5] = read-out: V503-3H9-7 reporter activity, % (7.5 μM)
[6] = read-out: V9M-SC3 Reporter activity ([…]) (%), […], Table 18, read-out: V9M-SC3 Reporter activity (2.5 μM) (%)
[7] = read-out: Ls174T-SC1 reporter activity, % ([…]), […], Table 18, read-out: Ls174T-SC1 reporter activity, % (2.5 μM)
[8] = read-out: Ls174T-SC1 reporter activity, % ([…]), […], Table 18, read-out: Ls174T-SC1 reporter activity, % (7.5 μM)
[9] = V9m reporter cells, […] compound, % induction of luciferase activity over basal level

Structure (SMILES)	activation at […] [1, 4]	activation at […] [1, 5]	activation at […] [2, 6]	activation at […] [3, 7]	activation at […] [3, 8]	activation at […] ([2]; read-out: V9M reporter activity ([…]), […], % increased luciferase activity over basal level, 100 = doubling, read-out: V9M reporter activity (2.5 uM))	V9M-SC3 Reporter activity ([…]) (%) [2, 9]	V9M-SC3 Reporter activity ([…]), % [2, 9]
COc1ccc(N(CC(=O)Nc2cccnc2)S(=O)(=O)c2ccccc2)c(OC)c1 [310875−38−8]	64.1%	148%	-8.72%	27.7%	102%	–	–	–
COc1ccc(Cl)cc1N(CC(=O)Nc1cccnc1)S(=O)(=O)c1ccccc1 [328012−52−8]	243%	-4.89%	-15.4%	128%	176%	–	–	–
O=C(CN(c1ccccc1)S(=O)(=O)c1ccccc1)Nc1cccnc1 [331727−07−2]	8.13%	1.14%	28.2%	-7.53%	9.47%	–	–	–
COc1ccc(OC)c(N(CC(=O)NC2CCCCC2)S(=O)(=O)c2ccccc2)c1 [333446-93-8]	53.8%	44.1%	16.5%	12.9%	13.5%	–	–	–
COC(=O)c1ccccc1NC(=O)CN(c1cc(OC)ccc1OC)S(=O)(=O)c1ccccc1 [333449-58-4]	50.1%	20.7%	6.5%	-5.9%	-3.99%	–	–	–
COc1cccc(N(CC(=O)Nc2cccnc2)S(=O)(=O)c2ccccc2)c1 [335392−39−7]	18.9%	21.9%	-12.8%	-0.54%	14.3%	–	–	–
COc1ccc(OC)c(N(CC(=O)Nc2ccc(Cl)cc2)S(=O)(=O)c2ccccc2)c1 [339589-53-6]	200%	105%	-1%	51.2%	89.7%	–	–	–
COc1ccc(OC)c(N(CC(=O)Nc2ccc(Cl)c(Cl)c2)S(=O)(=O)c2ccccc2)c1 [339589-55-8]	64%	52.5%	-7%	-5.54%	8.81%	–	–	–
COc1ccccc1N(CC(=O)Nc1cccnc1)S(=O)(=O)c1ccccc1 [367929−80−4]	-0.87%	-6.22%	-27.8%	18.8%	-18%	–	–	–
COc1ccc(N(CC(=O)Nc2cccnc2)S(=O)(=O)c2ccccc2)cc1 [418783−65−0]	11.6%	6.68%	0.51%	-12.6%	5.81%	–	–	–
COc1ccc(OC)c(N(CC(=O)Nc2ccc(F)cc2)S(=O)(=O)c2ccccc2)c1 [426231-26-7]	64%	113%	10%	16.2%	22.1%	–	–	–
CCOc1ccc(N(CC(=O)Nc2cccnc2)S(=O)(=O)c2ccccc2)cc1 [428473−22−7]	19.1%	19.8%	-17.9%	-15.5%	10.6%	–	–	–
CCc1ccc(N(CC(=O)Nc2cccnc2)S(=O)(=O)c2ccccc2)cc1 [461439−84−9]	1.57%	5.41%	-30.3%	4.83%	-35%	–	–	–
COc1ccc(OC)c(N(CC(=O)Nc2cccnc2)S(=O)(=O)c2ccc(C)cc2)c1 [505072−23−1]	242%	239%	94.7%	101%	109%	–	–	–
COc1ccc(OC)c(N(CC(=O)Nc2cccnc2)S(C)(=O)=O)c1 [527699−66−7]	38.8%	70.9%	-31%	7.31%	-29.6%	–	–	–
Nc1c(C(=O)Cc2ccccc2)sc2nc(-c3cccs3)cc(-c3ccccc3)c12 [SW033292]	–	–	–	–	–	1.51%	–	–
COc1ccc(OC)c(N(CC(=O)Nc2cncc(Cl)c2)S(=O)(=O)c2ccccc2)c1 [SW202990]	–	–	–	–	–	–	3.57%	23.49%
